Experimental data published in paper PMC11863801 (The Journal of Headache and Pain, 2025).
pIC50: −log10 of the molar value.

Molecular target: NaV1.9 (Rattus norvegicus, UniProt O88457)
Assay: whole-cell patch clamp of NaV1.9-mediated current
Type: cell-based

Sequence of NaV1.9 (O88457 whole entry): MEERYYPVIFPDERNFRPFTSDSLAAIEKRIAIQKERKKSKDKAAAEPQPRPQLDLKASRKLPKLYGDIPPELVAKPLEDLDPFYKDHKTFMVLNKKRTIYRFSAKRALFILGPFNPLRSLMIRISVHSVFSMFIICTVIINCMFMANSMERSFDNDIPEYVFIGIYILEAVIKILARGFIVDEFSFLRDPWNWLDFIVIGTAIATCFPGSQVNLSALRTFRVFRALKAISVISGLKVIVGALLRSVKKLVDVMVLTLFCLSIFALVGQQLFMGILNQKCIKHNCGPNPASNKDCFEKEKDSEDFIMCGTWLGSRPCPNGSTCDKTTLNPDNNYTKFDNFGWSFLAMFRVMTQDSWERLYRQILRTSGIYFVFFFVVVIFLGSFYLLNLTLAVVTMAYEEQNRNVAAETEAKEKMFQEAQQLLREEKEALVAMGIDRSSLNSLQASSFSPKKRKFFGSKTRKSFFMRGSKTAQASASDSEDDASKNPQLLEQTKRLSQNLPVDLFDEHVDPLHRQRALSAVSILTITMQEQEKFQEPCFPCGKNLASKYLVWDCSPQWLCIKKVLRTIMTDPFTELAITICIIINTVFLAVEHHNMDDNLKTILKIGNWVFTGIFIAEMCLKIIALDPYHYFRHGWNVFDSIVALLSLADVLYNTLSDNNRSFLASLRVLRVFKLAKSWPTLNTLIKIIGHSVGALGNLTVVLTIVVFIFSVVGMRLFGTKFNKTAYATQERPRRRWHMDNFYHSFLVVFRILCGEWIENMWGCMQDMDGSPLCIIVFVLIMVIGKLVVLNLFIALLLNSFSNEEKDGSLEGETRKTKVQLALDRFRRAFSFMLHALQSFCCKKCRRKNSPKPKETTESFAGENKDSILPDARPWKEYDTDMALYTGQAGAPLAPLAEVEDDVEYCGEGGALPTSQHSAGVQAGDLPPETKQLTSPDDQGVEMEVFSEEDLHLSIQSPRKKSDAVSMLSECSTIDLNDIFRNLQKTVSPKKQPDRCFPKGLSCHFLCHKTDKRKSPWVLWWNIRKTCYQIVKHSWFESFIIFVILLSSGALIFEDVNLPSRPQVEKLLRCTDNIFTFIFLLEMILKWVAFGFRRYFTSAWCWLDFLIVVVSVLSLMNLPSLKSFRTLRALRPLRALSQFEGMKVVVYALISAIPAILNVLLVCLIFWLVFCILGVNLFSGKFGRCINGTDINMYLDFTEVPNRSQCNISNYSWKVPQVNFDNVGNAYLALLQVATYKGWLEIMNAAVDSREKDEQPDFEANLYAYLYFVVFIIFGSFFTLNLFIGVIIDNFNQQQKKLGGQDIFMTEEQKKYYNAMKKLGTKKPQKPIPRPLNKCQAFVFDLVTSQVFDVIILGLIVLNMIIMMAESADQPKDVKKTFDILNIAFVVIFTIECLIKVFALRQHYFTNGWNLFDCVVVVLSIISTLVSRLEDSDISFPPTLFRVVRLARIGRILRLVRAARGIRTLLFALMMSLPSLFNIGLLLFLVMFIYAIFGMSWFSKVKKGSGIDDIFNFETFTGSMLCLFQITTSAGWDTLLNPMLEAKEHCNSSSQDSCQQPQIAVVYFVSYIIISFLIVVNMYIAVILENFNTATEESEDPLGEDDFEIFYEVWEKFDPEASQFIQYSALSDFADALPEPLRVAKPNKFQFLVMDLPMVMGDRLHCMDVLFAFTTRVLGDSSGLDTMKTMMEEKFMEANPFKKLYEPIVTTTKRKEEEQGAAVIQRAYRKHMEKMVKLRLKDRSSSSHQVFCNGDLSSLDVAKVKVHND

## C[C@]12CC[C@H](O)CC1=CC[C@@H]1[C@@H]2CC[C@]2(C)C(=O)CC[C@@H]12 [DHEA, dehydroepiandrosterone]
  pIC50: 4.31
